Data reported in patent US20240156999A1, “MULTIMERIC CHELATOR COMPOUNDS FOR USE IN TARGETED RADIOTHERAPY” (Bayer Aktiengesellschaft, priority 2021, published 2024).

Tests used:
[1] = Radiochemical purity (RCP) by iTLC after radiolabeling with Ac-225; type: physicochemical; conditions: labelling concentration 0.02 mM
Procedure: (§1) Aliquots of Ac-225 in 0.04 M HCl or Ra-223 in 0.05 M HCl were withdrawn into Eppendorf tubes. The radioactivity in each tube was measured by HPGe detector. Solutions of compounds in 0.1 M sodium acetate, pH 5-5.5 (with additional 0.1 M NaCl for ACC solutions) were added to the tubes. RAC was in the range of 1-5 M Bq/mL and specific activity in the range of 2-200 kBq/nmol. The labelling solutions were left for 60-90 min at room temperature.
(§2) Radiochemical purity (RCP) of the labeled compounds was determined by iTLC. iTLC strips were cut from silica impregnated chromatography paper, approx. 1 cm wide and 11 cm long. The strips were marked with a pen at 1 cm (application point), 4 cm (cut line for ACCs) or 5 cm (cut line for chelators) and 8 cm (front line). A beaker was filled up to 0.5 cm with 0.1 M citrate in 0.9% NaCl, pH 5.5. 1-10 μL of the radiolabeled compound was added to the application point and the strips immediately placed vertically in the beaker. The strips were removed when the solvent front reached the front line and then cut in two sections at the cut line. Each section was measured using a HPGe detector (ORTEC) to determine the radioactivity origin from the nuclide of interest. The RCP, in percentage, forthe nuclide of interest was calculated using the following equation: […]

[2] = Radiochemical purity (RCP) by iTLC after radiolabeling with Ra-223; type: physicochemical; conditions: for labelling efficiency with radium-223: compared to monomeric macropa, at 0.1 and 0.02 mM, as low as 0.005 mM for Oct2; for RCP Ra-223: iTLC
Procedure: as §1, §2

[3] = cited from earlier work
[4] = Radio-HPLC analysis of Ra-223 labelled compound with peak fractioning; type: physicochemical
Procedure: Radiolabeled compounds were analyzed by radio-HPLC using either a) Vanquish HPLC system (Thermo) equipped with a diode array detector and a Flowstar LB 514 radio detector (Berthold technologies); or b) an 1290 Infinity-II HPLC system (Agilent) equipped with a diode array detector and flow-count radio detector (Eckert & Ziegler).
Labelled chelator compounds were eluted using A=40 mM TRIS/6 mM citrate/2 mM EDTA and B=ACN/MeOH (8:2); aKinetexC18 (30×2.1 mm), 1.7 μm, 100 Å, Phenomenex); gradient 5-50% B for 10 min; flow rate of 0.3 mL/min or a Discovery RP amide c16 (150×2.1mm), 5 um, 100 Å, Gradient: 5-50% B for 12.5 min; flow rate of 0.6 mL/min.
Radio-HPLC peak fractioning was performed to determine the radionuclide(s) associated to each radio peak. The collected peak fractions were analysed using an HPGe detector.

[5] = labelling concentration 0.02 mM
[6] = labelling concentration 0.005 mM
[7] = labelling concentration 0.27 mM

SMILES	RCP Ac-225 [1]	labelling efficiency with radium-223 [2]	RCP Ra-223 [2, 5]	RCP Ra-223 [2, 6]	other results
COC(=O)c1cccc(CN2CCOCCOCCN(Cc3cc(NC(=O)COCC(=O)NCCN(CCN)CCCN(CCN)CCNC(=O)COCC(=O)Nc4cc(CN5CCOCCOCCN(Cc6cccc(C(=O)OC)n6)CCOCCOCC5)nc(C(=O)OC)c4)cc(C(=O)OC)n3)CCOCCOCC2)n1 [Dim1, Dimethyl 4,4′-{[9,13-bis(2-aminoethyl)-1,5,17,21-tetraoxo-3,19-dioxa-6,9,13,16-tetraazahenicosane-1,21-diyl]diimino}bis{6-[(16-{[6-(methoxycarbonyl)pyridin-2-yl]methyl}-1,4,10,13-tetraoxa-7,16-diazacyclooctadecan-7-yl)methyl]pyridine-2-carboxylate}]	100%	high labelling efficiency	80%	–	–
O=C(O)c1cccc(CN2CCOCCOCCN(Cc3cccc(CN4CCOCCOCCN(Cc5cccc(C(=O)O)n5)CCOCCOCC4)n3)CCOCCOCC2)n1 [Dim2, 6,6′-[pyridine-2,6-diylbis(methylene-1,4,10,13-tetraoxa-7,16-diazacyclooctadecane-16,7-diylmethylene)]dipyridine-2-carboxylic acid]	100%	–	–	–	RCP Ra-223 ([2]; labelling concentration 0.2 mM): 11%
O=C(O)c1cccc(CN2CCOCCOCCN(Cc3cccc(C(=O)NCCCC[C@@H](NC(=O)c4cccc(CN5CCOCCOCCN(Cc6cccc(C(=O)O)n6)CCOCCOCC5)n4)C(=O)O)n3)CCOCCOCC2)n1 [Dim3, 6-[[16-[[6-[[(5R)-5-carboxy-5-[[6-[[16-[(6-carboxy-2-pyridyl)methyl]-1,4,10,13-tetraoxa-7,16-diazacyclooctadec-7-yl]methyl]pyridine-2-carbonyl]amino]pentyl]carbamoyl]-2-pyridyl]methyl]-1,4,10,13-tetraoxa-7,16-diazacyclooctadec-7-yl]methyl]pyridine-2-carboxylic acid]	100%	–	–	–	RCP Ra-223 ([2]; labelling concentration 0.2 mM): 32%
O=C(O)c1cccc(CN2CCOCCOCCN(Cc3cccc(C(=O)O)n3)CCOCCOCC2)n1 [Macropa, 6,6′-[1,4,10,13-tetraoxa-7,16-diazacyclooctadecane-7,16-diylbis(methylene)]dipyridine-2-carboxylic acid, reference compound]	100%	–	–	8%	complexation of radium-223 ([2]; at 0.1, 0.02 and 0.005 mM concentrations): no complexation of radium-223 was observed; RCP Ra-223 [2, 7]: 12%; selectivity for large over small alkaline earth metals [3]: excellent selectivity; affinity for Ba2+ ([3]; pH 7.4): highest affinity
Nc1cc(CN2CCOCCOCCN(Cc3cccc(C(=O)O)n3)CCOCCOCC2)nc(C(=O)O)c1 [Macropa-NH2, reference compound]	99%	–	–	–	RCP Ra-223 ([2]; labelling concentration 0.1 mM): 2%; RCP Ra-223 [2, 7]: 12%
O=C(CCc1cc(CN2CCOCCOCCN(Cc3cccc(C(=O)O)n3)CCOCCOCC2)nc(C(=O)O)c1)NCCCC[C@H](NC(=O)CCc1cc(CN2CCOCCOCCN(Cc3cccc(C(=O)O)n3)CCOCCOCC2)nc(C(=O)O)c1)C(=O)NCCN(CCCN(CCNC(=O)[C@H](CCCCNC(=O)CCc1cc(CN2CCOCCOCCN(Cc3cccc(C(=O)O)n3)CCOCCOCC2)nc(C(=O)O)c1)NC(=O)CCc1cc(CN2CCOCCOCCN(Cc3cccc(C(=O)O)n3)CCOCCOCC2)nc(C(=O)O)c1)CCNC(=O)[C@H](CCCCNC(=O)CCc1cc(CN2CCOCCOCCN(Cc3cccc(C(=O)O)n3)CCOCCOCC2)nc(C(=O)O)c1)NC(=O)CCc1cc(CN2CCOCCOCCN(Cc3cccc(C(=O)O)n3)CCOCCOCC2)nc(C(=O)O)c1)CCNC(=O)[C@H](CCCCNC(=O)CCc1cc(CN2CCOCCOCCN(Cc3cccc(C(=O)O)n3)CCOCCOCC2)nc(C(=O)O)c1)NC(=O)CCc1cc(CN2CCOCCOCCN(Cc3cccc(C(=O)O)n3)CCOCCOCC2)nc(C(=O)O)c1 [Oct2]	–	high labelling efficiency	–	64%	–
COC(=O)c1cccc(CN2CCOCCOCCN(Cc3cc(NC(=O)COCC(=O)NCCN(CCCN(CCNC(=O)COCC(=O)Nc4cc(CN5CCOCCOCCN(Cc6cccc(C(=O)OC)n6)CCOCCOCC5)nc(C(=O)OC)c4)CCNC(=O)COCC(=O)Nc4cc(CN5CCOCCOCCN(Cc6cccc(C(=O)OC)n6)CCOCCOCC5)nc(C(=O)OC)c4)CCNC(=O)COCC(=O)Nc4cc(CN5CCOCCOCCN(Cc6cccc(C(=O)OC)n6)CCOCCOCC5)nc(C(=O)OC)c4)cc(C(=O)OC)n3)CCOCCOCC2)n1 [Tet1]	99%	high labelling efficiency	95%	–	labeling of solution with Ra-223 ([4]; 0.02 mM solution): efficient labeling; wash through of free radioactivity in the void volume ([4]; radio HPLC, Ra-223 labelled): almost no wash through of free radioactivity
O=C(COCC(=O)Nc1cc(CN2CCOCCOCCN(Cc3cccc(C(=O)O)n3)CCOCCOCC2)nc(C(=O)O)c1)NCCN(CCCN(CCNC(=O)COCC(=O)Nc1cc(CN2CCOCCOCCN(Cc3cccc(C(=O)O)n3)CCOCCOCC2)nc(C(=O)O)c1)CCNC(=O)COCC(=O)Nc1cc(CN2CCOCCOCCN(Cc3cccc(C(=O)O)n3)CCOCCOCC2)nc(C(=O)O)c1)CCNC(=O)COCC(=O)Nc1cc(CN2CCOCCOCCN(Cc3cccc(C(=O)O)n3)CCOCCOCC2)nc(C(=O)O)c1 [Tet2, 4,4′-[(9,13-bis{2-[2-(2-{[2-carboxy-6-({16-[(6-carboxypyridin-2-yl)methyl]-1,4,10,13-tetraoxa-7,16-diazacyclooctadecan-7-yl}methyl)pyridin-4-yl]amino}-2-oxoethoxy)acetamido]ethyl}-1,5,17,21-tetraoxo-3,19-dioxa-6,9,13,16-tetraazahenicosane-1,21-diyl)diimino]bis[6-({16-[(6-carboxypyridin-2-yl)methyl]-1,4,10,13-tetraoxa-7,16-diazacyclooctadecan-7-yl}methyl)pyridine-2-carboxylic acid]]	–	high labelling efficiency	74%	–	–
O=C(CCc1cc(CN2CCOCCOCCN(Cc3cccc(C(=O)O)n3)CCOCCOCC2)nc(C(=O)O)c1)NCCN(CCCN(CCNC(=O)CCc1cc(CN2CCOCCOCCN(Cc3cccc(C(=O)O)n3)CCOCCOCC2)nc(C(=O)O)c1)CCNC(=O)CCc1cc(CN2CCOCCOCCN(Cc3cccc(C(=O)O)n3)CCOCCOCC2)nc(C(=O)O)c1)CCNC(=O)CCc1cc(CN2CCOCCOCCN(Cc3cccc(C(=O)O)n3)CCOCCOCC2)nc(C(=O)O)c1 [Tet5, 4,4′-[7,11-bis(2-{3-[2-carboxy-6-({16-[(6-carboxypyridin-2-yl)methyl]-1,4,10,13-tetraoxa-7,16-diazacyclooctadecan-7-yl}methyl)pyridin-4-yl]propanamido}ethyl)-3,15-dioxo-4,7,11,14-tetraazaheptadecane-1,17-diyl]bis[6-({16-[(6-carboxypyridin-2-yl)methyl]-1,4,10,13-tetraoxa-7,16-diazacyclooctadecan-7-yl}methyl)pyridine-2-carboxylic acid]]	–	high labelling efficiency	95%	36%	–
COC(=O)c1cccc(CN2CCOCCOCCN(Cc3cc(NC(=O)COCC(=O)NCCN(CCN)CCCN(CCNC(=O)COCC(=O)Nc4cc(CN5CCOCCOCCN(Cc6cccc(C(=O)OC)n6)CCOCCOCC5)nc(C(=O)OC)c4)CCNC(=O)COCC(=O)Nc4cc(CN5CCOCCOCCN(Cc6cccc(C(=O)OC)n6)CCOCCOCC5)nc(C(=O)OC)c4)cc(C(=O)OC)n3)CCOCCOCC2)n1 [Tri1]	–	high labelling efficiency	89%	–	–
